Measured values: PubChem BioAssay AID1963827 (Molecular Pharmacology Branch, DTP, NCI, 2024)

Tested on: 994946-033-R-J1-PDC complex spheroid viability
Experiment: Anticancer human tumor 994946-033-R-J1-PDC patient-derived melanoma cell line growth inhibition [POLQ]
Conditions: for IC50: curve of first compound; for viability, T/C: stronger effect = lower value
Summary of the method: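 Complex spheroid viability model combining PDC tumour cells with endothelial (HUVEC) and MSC stromal cells. Novobiocin, ART-558 or RP6685 were tested singly and in combination with standard and investigational anticancer drugs. Each was titrated in half-log steps from near clinical Cmax, or from 10 microM where Cmax was unknown.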

[1] = second compound 0.0316 µM, first compound 0.0316 µM
[2] = second compound 0.0316 µM, first compound 0.1 µM
[3] = second compound 0.0316 µM, first compound 0.316 µM
[4] = second compound 0.0316 µM, first compound 1 µM
[5] = second compound 0.0316 µM, first compound 3.16 µM
[6] = second compound 0.0316 µM, first compound 10 µM
[7] = second compound 0.1 µM, first compound 0.0316 µM
[8] = second compound 0.1 µM, first compound 0.1 µM
[9] = second compound 0.1 µM, first compound 0.316 µM
[10] = second compound 0.1 µM, first compound 1 µM
[11] = second compound 0.1 µM, first compound 3.16 µM
[12] = second compound 0.1 µM, first compound 10 µM
[13] = second compound 0.316 µM, first compound 0.0316 µM
[14] = second compound 0.316 µM, first compound 0.1 µM
[15] = second compound 0.316 µM, first compound 0.316 µM
[16] = second compound 0.316 µM, first compound 1 µM
[17] = second compound 0.316 µM, first compound 3.16 µM
[18] = second compound 0.316 µM, first compound 10 µM
[19] = second compound 1 µM, first compound 0.0316 µM
[20] = second compound 1 µM, first compound 0.1 µM
[21] = second compound 1 µM, first compound 0.316 µM
[22] = second compound 1 µM, first compound 1 µM
[23] = second compound 1 µM, first compound 3.16 µM
[24] = second compound 1 µM, first compound 10 µM
[25] = second compound 3.16 µM, first compound 0.0316 µM
[26] = second compound 3.16 µM, first compound 0.1 µM
[27] = second compound 3.16 µM, first compound 0.316 µM
[28] = second compound 3.16 µM, first compound 1 µM
[29] = second compound 3.16 µM, first compound 3.16 µM
[30] = second compound 3.16 µM, first compound 10 µM
[31] = second compound 10 µM, first compound 0.0316 µM
[32] = second compound 10 µM, first compound 0.1 µM
[33] = second compound 10 µM, first compound 0.316 µM
[34] = second compound 10 µM, first compound 1 µM
[35] = second compound 10 µM, first compound 3.16 µM
[36] = second compound 10 µM, first compound 10 µM
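Note: spheroids exposed to drugs for 7 days.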
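Throughout, for viability, T/C: 100% = DMSO vehicle treated spheroids.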

CC1COCCN1c1cc(C2(O)CC3CCC(C2)O3)c2cnn(-c3ccn[nH]3)c2n1 (centres undefined) + COC1C(OC(N)=O)C(O)C(Oc2ccc3c(O)c(NC(=O)c4ccc(O)c(CC=C(C)C)c4)c(=O)oc3c2C)OC1(C)C
IC50 (second compound 0.0316 µM): 0.0366 µM
IC50 (second compound 0.1 µM): 0.0505 µM
IC50 (second compound 0.316 µM): 0.034 µM
IC50 (second compound 1 µM): 0.0681 µM
IC50 (second compound 3.16 µM): < 0.0316 µM
IC50 (second compound 10 µM): 0.0445 µM
viability, T/C [1]: 52.4%
viability, T/C [2]: 39.7%
viability, T/C [3]: 17.2%
viability, T/C [4]: 25.7%
viability, T/C [5]: 12.7%
viability, T/C [6]: 6.6%
viability, T/C [7]: 61.9%
viability, T/C [8]: 32.1%
viability, T/C [9]: 19.1%
viability, T/C [10]: 17.5%
viability, T/C [11]: 11.9%
viability, T/C [12]: 6.15%
viability, T/C [13]: 52.1%
viability, T/C [14]: 29.5%
viability, T/C [15]: 19.2%
viability, T/C [16]: 16.5%
viability, T/C [17]: 14.3%
viability, T/C [18]: 6.89%
viability, T/C [19]: 79.2%
viability, T/C [20]: 30.6%
viability, T/C [21]: 25.5%
viability, T/C [22]: 20.1%
viability, T/C [23]: 14.2%
viability, T/C [24]: 5.41%
viability, T/C [25]: 46.6%
viability, T/C [26]: 25.5%
viability, T/C [27]: 23.7%
viability, T/C [28]: 18.9%
viability, T/C [29]: 8.1%
viability, T/C [30]: 4.51%
viability, T/C [31]: 56.8%
viability, T/C [32]: 35.9%
viability, T/C [33]: 27.6%
viability, T/C [34]: 22.5%
viability, T/C [35]: 15.3%
viability, T/C [36]: 5.9%

O=C(Nc1ccc(O)c(NS(=O)(=O)c2ccc(F)cc2)c1)c1ccc(-c2ccccc2)cc1 + COC1C(OC(N)=O)C(O)C(Oc2ccc3c(O)c(NC(=O)c4ccc(O)c(CC=C(C)C)c4)c(=O)oc3c2C)OC1(C)C
IC50 (second compound 0.0316 µM): 6.64 µM
IC50 (second compound 0.1 µM): 6.29 µM
IC50 (second compound 0.316 µM): 6.09 µM
IC50 (second compound 1 µM): 6.3 µM
IC50 (second compound 3.16 µM): 5.45 µM
IC50 (second compound 10 µM): 4.58 µM
viability, T/C [1]: 87.9%
viability, T/C [2]: 103%
viability, T/C [3]: 101%
viability, T/C [4]: 111%
viability, T/C [5]: 93%
viability, T/C [6]: 25.9%
viability, T/C [7]: 96%
viability, T/C [8]: 105%
viability, T/C [9]: 80.2%
viability, T/C [10]: 94.4%
viability, T/C [11]: 82.6%
viability, T/C [12]: 27.9%
viability, T/C [13]: 99%
viability, T/C [14]: 123%
viability, T/C [15]: 84.3%
viability, T/C [16]: 87.3%
viability, T/C [17]: 85.1%
viability, T/C [18]: 27.6%
viability, T/C [19]: 100%
viability, T/C [20]: 81.8%
viability, T/C [21]: 109%
viability, T/C [22]: 111%
viability, T/C [23]: 78%
viability, T/C [24]: 31.1%
viability, T/C [25]: 97.8%
viability, T/C [26]: 103%
viability, T/C [27]: 92.3%
viability, T/C [28]: 83.5%
viability, T/C [29]: 66.2%
viability, T/C [30]: 32.4%
viability, T/C [31]: 82.2%
viability, T/C [32]: 102%
viability, T/C [33]: 84.5%
viability, T/C [34]: 129%
viability, T/C [35]: 60.1%
viability, T/C [36]: 28.5%
